# Measurements: US11220503B2, “Phthalazine derivatives, preparation method, pharmaceutical composition and usage thereof” (Shanghai SIMR Biotech Co., Ltd., priority 2015, dated 2022)
# Assays:
# α5β3γ2 receptor [1] = molecular target: T1, α5β3γ2 receptor (Homo sapiens, UniProt P18507+P31644); test: Supplementary data for cell level screening: new electrophysiology method (I. Lecker et al); assay type: cell-based; conditions: for Inverse agonism efficacy(%): new method, CsCl intracellular solution, GABA 0.1˜0.3 CM, other procedures as previous method; for inverse agonism efficacy of the compound/α5IA inverse agonism efficacy: ratio to the α5IA reference run above in the table (r4 or r29)
# T1 construct: expressed in transfected cells; host or cells: HEK-293 (stably transfected)
# T1 sequence (P31644 32-462): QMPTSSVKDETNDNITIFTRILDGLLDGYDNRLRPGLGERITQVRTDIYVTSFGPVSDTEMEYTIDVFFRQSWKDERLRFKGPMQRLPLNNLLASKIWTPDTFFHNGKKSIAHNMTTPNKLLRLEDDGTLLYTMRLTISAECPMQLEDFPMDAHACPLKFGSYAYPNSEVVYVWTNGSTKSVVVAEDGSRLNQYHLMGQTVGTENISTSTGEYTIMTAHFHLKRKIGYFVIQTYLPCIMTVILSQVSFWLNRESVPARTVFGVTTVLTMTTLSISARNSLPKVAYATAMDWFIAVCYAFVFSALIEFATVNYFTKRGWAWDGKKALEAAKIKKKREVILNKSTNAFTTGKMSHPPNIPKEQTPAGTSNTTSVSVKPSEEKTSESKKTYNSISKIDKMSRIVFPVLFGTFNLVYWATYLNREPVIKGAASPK
# T1 sequence (P28472 26-473 isoform P28472-2 partner limits assumed): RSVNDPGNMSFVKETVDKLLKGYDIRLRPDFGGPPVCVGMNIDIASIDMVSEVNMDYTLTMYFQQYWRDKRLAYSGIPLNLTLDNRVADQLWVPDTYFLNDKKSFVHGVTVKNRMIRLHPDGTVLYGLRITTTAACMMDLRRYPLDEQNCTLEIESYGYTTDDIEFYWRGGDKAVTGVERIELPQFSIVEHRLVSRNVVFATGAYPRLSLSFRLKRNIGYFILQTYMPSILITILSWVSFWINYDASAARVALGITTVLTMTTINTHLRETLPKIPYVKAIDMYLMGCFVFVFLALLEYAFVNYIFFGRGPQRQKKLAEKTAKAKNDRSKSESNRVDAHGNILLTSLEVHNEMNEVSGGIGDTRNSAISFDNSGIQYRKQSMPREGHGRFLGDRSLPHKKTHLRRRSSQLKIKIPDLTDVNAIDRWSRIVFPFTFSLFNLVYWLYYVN
# T1 sequence (P18507 40-475): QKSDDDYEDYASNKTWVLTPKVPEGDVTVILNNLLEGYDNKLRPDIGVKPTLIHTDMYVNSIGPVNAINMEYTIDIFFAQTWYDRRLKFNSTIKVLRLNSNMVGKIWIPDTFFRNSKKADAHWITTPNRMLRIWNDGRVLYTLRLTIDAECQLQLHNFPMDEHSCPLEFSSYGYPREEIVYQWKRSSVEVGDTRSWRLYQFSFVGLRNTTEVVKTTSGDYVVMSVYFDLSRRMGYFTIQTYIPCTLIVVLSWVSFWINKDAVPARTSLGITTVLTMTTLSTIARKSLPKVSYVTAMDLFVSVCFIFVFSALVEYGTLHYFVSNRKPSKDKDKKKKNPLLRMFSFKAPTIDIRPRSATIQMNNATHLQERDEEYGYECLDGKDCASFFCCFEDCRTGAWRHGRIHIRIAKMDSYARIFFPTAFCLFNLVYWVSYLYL
# Procedure: The inventors used electrophysiological methods to assay the inverse agonist efficacy of the substance to be tested. The detailed procedures are as follows: (1) Different subunits of GABAA receptors were expressed in human embryonic kidney cells 293 (HEK293). The cells were cultured in a culture medium and used as a cell model for screening potential analgesics. The α, β and γ subunits are necessary to form complete functional GABAA receptors. In this example, the inventor has established the following cell model: (a) α5 subunit (protein sequence is GenBank accession number: NP_001158509), β3 subunit (protein sequence is GenBank accession number: NP_068712) and γ2 subunit (protein sequence is GenBank accession number: NP_944494) were expressed in HEK-293 cell lines at the same time, which formed the complete functional GABAA receptors. (2) Cells were stably transfected HEK-293 cells expressing α5β3γ2 receptor, which were labeled by green fluorescent protein (GFP). Cells were grown in 10 cm dishes. The cells were passaged after reaching 80-90% confluence. During passaging, the culture medium was removed and discarded, 3 mL DMEM medium (Gibco™) was added to the dishes, the dishes were shaken slightly, and DMEM was removed and discarded. 3 mL Trypsin (Trypsin-EDTA 0.05%, Gibco™) was added and cells were digested at 37° C. for 3 minutes. Then 3 mL complete growth medium (DMEM+10% horse serum (Gibco™)) was added and the cells at the bottom of the culture dishes were dispersed. The cell suspension were transferred to a 15 mL centrifugal tube (Corning®) and then centrifuged at 200 g for 3 minutes. The supernatant was discarded, 4 mL complete growth medium was added, and the cells were resuspended by gently blowing. The cell suspension was diluted by 1:5 or 1:10 for subculturing. The cell suspension was diluted by 1:12 for electrophysiology experiment, which are added to the 24 well plate (Corning®) which has a glass slide pre-treated with poly-D-lysine. The cells were adhered to the slide before the experiment was conducted. The cells were maintained in culture for no more than 24 hours before use. (3) Compound concentration: for screening, all compounds were diluted to a final concentration of 100 nM. […] The compounds were at the concentration of 1 nM, 10 nM, 50 nM, 100 nM and 1000 nM in dose-inverse agonism efficacy (%) experiment. The whole cell patch clamp technique was used in electrophysiology experiments. The extracellular solution (ECS) contained: 150 mM NaCl, 5 mM KCl, 2.5 mM CaCl2, 1 mM MgCl2, 10 mM HEPES and 10 mM glucose (pH 7.4); […], 5 mM EGTA, 10 mM HEPES ([…] water). The currents were recorded by an EPC-10 amplifier and the PatchMaster software (HEKA). Patch electrodes with a resistance of 5-6 MΩ were pulled from borosilicate glass (Sutter). The diluted compounds were perfused by OCTAFLOWII system. GFP positive and independently growing cells were selected for recording. During recording, the membrane voltage was clamped at −60 mV. During experiment, the cells were firstly perfused with ECS for 20 seconds. When the baseline reached to a stable state, cells were then perfused with GABA solution. Then the current induced by GABA can be detected. After about 20-40 seconds, the current was stable. ECS was switched to compounds solution and the effects of the compounds were detected. At last, the perfusion solution was switched to ECS. The experiment was finished when the post-baseline returned to the pre-baseline before compounds perfusion. Only the data whose pre-baseline and post-baseline are at almost the same level were used for analysis. […] Then, compounds were diluted at the desired concentration in GABA ECS. (4) Currents were analyzed with the PatchMaster (HEKA) software. The GABA currents before (Ipre) and after (Ipost) compounds perfusion were recorded respectively. The efficacies of compounds were calculated by the following equation: inverse agonism efficacy=(Ipost-Ipre)*100/Ipre. N indicates experiment numbers. […]
# α5β3γ2 receptor [2] = molecular target: T1, α5β3γ2 receptor; test: Cell level screening: whole cell patch clamp, inverse agonist efficacy; assay type: cell-based; conditions: for inhibition at 0.1 µM: HEK293, compound 100 nM, GABA 0.05-0.1 μM, HEK293 α5β3γ2, clamped at −60 mV, (Ipost-Ipre)*100/Ipre, read-out: inverse agonism efficacy(%); for inverse agonism efficacy of the compound/α5IA inverse agonism efficacy: ratio to α5IA, compound 100 nM
# Procedure: The inventors used electrophysiological methods to assay the inverse agonist efficacy of the substance to be tested. The detailed procedures are as follows: (1) Different subunits of GABAA receptors were expressed in human embryonic kidney cells 293 (HEK293). The cells were cultured in a culture medium and used as a cell model for screening potential analgesics. The α, β and γ subunits are necessary to form complete functional GABAA receptors. In this example, the inventor has established the following cell model: (a) α5 subunit (protein sequence is GenBank accession number: NP_001158509), β3 subunit (protein sequence is GenBank accession number: NP_068712) and γ2 subunit (protein sequence is GenBank accession number: NP_944494) were expressed in HEK-293 cell lines at the same time, which formed the complete functional GABAA receptors. (2) Cells were stably transfected HEK-293 cells expressing α5β3γ2 receptor, which were labeled by green fluorescent protein (GFP). Cells were grown in 10 cm dishes. The cells were passaged after reaching 80-90% confluence. During passaging, the culture medium was removed and discarded, 3 mL DMEM medium (Gibco™) was added to the dishes, the dishes were shaken slightly, and DMEM was removed and discarded. 3 mL Trypsin (Trypsin-EDTA 0.05%, Gibco™) was added and cells were digested at 37° C. for 3 minutes. Then 3 mL complete growth medium (DMEM+10% horse serum (Gibco™)) was added and the cells at the bottom of the culture dishes were dispersed. The cell suspension were transferred to a 15 mL centrifugal tube (Corning®) and then centrifuged at 200 g for 3 minutes. The supernatant was discarded, 4 mL complete growth medium was added, and the cells were resuspended by gently blowing. The cell suspension was diluted by 1:5 or 1:10 for subculturing. The cell suspension was diluted by 1:12 for electrophysiology experiment, which are added to the 24 well plate (Corning®) which has a glass slide pre-treated with poly-D-lysine. The cells were adhered to the slide before the experiment was conducted. The cells were maintained in culture for no more than 24 hours before use. (3) Compound concentration: for screening, all compounds were diluted to a final concentration of 100 nM. GABA was diluted at the concentration of 0.05-0.1 μM. The compounds were at the concentration of 1 nM, 10 nM, 50 nM, 100 nM and 1000 nM in dose-inverse agonism efficacy (%) experiment. The whole cell patch clamp technique was used in electrophysiology experiments. The extracellular solution (ECS) contained: 150 mM NaCl, 5 mM KCl, 2.5 mM CaCl2, 1 mM MgCl2, 10 mM HEPES and 10 mM glucose (pH 7.4); Patch electrodes were filled with an intracellular solution containing: 140 mM KCl, 5 mM EGTA, 10 mM HEPES (adjusted to pH 7.4 with KOH and to 320-330 mOsm with water). The currents were recorded by an EPC-10 amplifier and the PatchMaster software (HEKA). Patch electrodes with a resistance of 5-6 MΩ were pulled from borosilicate glass (Sutter). The diluted compounds were perfused by OCTAFLOWII system. GFP positive and independently growing cells were selected for recording. During recording, the membrane voltage was clamped at −60 mV. During experiment, the cells were firstly perfused with ECS for 20 seconds. When the baseline reached to a stable state, cells were then perfused with GABA solution. Then the current induced by GABA can be detected. After about 20-40 seconds, the current was stable. ECS was switched to compounds solution and the effects of the compounds were detected. At last, the perfusion solution was switched to ECS. The experiment was finished when the post-baseline returned to the pre-baseline before compounds perfusion. Only the data whose pre-baseline and post-baseline are at almost the same level were used for analysis. GABA was diluted at the concentration of 0.05-0.1 μM in ECS. Then, compounds were diluted at the desired concentration in GABA ECS. (4) Currents were analyzed with the PatchMaster (HEKA) software. […]
Inverse agonism efficacy(%) (α5β3γ2 receptor [1]),inverse agonism efficacy of the compound/α5IA inverse agonism efficacy (α5β3γ2 receptor [1]),inhibition at 0.1 µM (α5β3γ2 receptor [2]),inverse agonism efficacy of the compound/α5IA inverse agonism efficacy (α5β3γ2 receptor [2]),SMILES
−27%,1.554,30%,1.33,"Cc1cc(-c2nnc3c4ccccc4c(OCc4cc(C(=O)N[C@H](C)CO)on4)nn23)no1 [Compound 58, (R)—N-(1-hydroxypropan-2-yl)-3-(((3-(5-methylisoxazol-3-yl)-[1,2,4]triazolo[3,4-a]phthalazin-6-yl)oxy)methyl)isoxazole-5-carboxamide]"
−31.6%,1.819,33.3%,1.4765,"C[C@H](CO)NC(=O)c1ccc(COc2nn3c(-c4cc(CO)on4)nnc3c3ccccc23)c(C#N)c1 [Compound 55, (R)-3-cyano-4-(((3-(5-(hydroxymethyl)isoxazol-3-yl)-[1,2,4]triazolo[3,4-a]phthalazin-6-yl)oxy)methyl)-N-(1-hydroxypropan-2-yl)benzamide]"
−25%,1.439,38.3%,1.6973,"Cc1nc(-c2nnc3c4ccccc4c(OCc4ccc(C(=O)N[C@H](C)CO)cn4)nn23)no1 [Compound 57, (R)—N-(1-hydroxypropan-2-yl)-6-(((3-(5-methyl-1,2,4-oxadiazol-3-yl)-[1,2,4]triazolo[3,4-a]phthalazin-6-yl)oxy)methyl)nicotinamide]"

# The remaining lines, values behind:
SMILES,Inverse agonism efficacy(%) (α5β3γ2 receptor [1]),inverse agonism efficacy of the compound/α5IA inverse agonism efficacy (α5β3γ2 receptor [1]),inhibition at 0.1 µM (α5β3γ2 receptor [2]),inverse agonism efficacy of the compound/α5IA inverse agonism efficacy (α5β3γ2 receptor [2])
"Cc1cc(-c2nnc3c4ccccc4c(OCc4ccc(C(=O)N[C@H](C)CO)cn4)nn23)no1 [Compound 02, (R)—N-(1-hydroxypropan-2-yl)-6-((3-(5-methylisoxazol-3-yl)-[1,2,4]triazolo[3,4-a]phthalazin-6-yloxy)methyl)nicotinamide]",−21.33%,1.229,52.2%,2.313
"O=C(NC1CCOC1)c1ccc(COc2nn3c(-c4cc(CO)on4)nnc3c3ccccc23)nc1 (stereo not drawn) [Compound 47, 6-(((3-(5-(hydroxymethyl)isoxazol-3-yl)-[1,2,4]triazol[3,4-a]phthalazin-6-yl)oxy)methyl)-N-(tetrahydrofuran-3-yl)nicotinamide]",−26.875%,1.547,51.5%,2.284
"Cc1cc(-c2nnc3c4ccccc4c(OCc4ccc(C(=O)N[C@H]5CCC[C@@H]5O)cn4)nn23)no1 [Compound 03, N-((1S,2S)-2-hydroxycyclopentyl)-6-(((3-(5-methylisoxazol-3-yl)-[1,2,4]triazolo[3,4-a]phthalazin-6-yl)oxy)methyl)nicotinamide]",−29.33%,1.689,41.3%,1.832
"COCCNC(=O)c1ccc(COc2nn3c(-c4cc(CO)on4)nnc3c3ccccc23)nc1 [Compound 43, 6-(((3-(5-(hydroxymethyl)isoxazol-3-yl)-[1,2,4]triazolo[3,4-a]phthalazin-6-yl)oxy)methyl)-N-(2-methoxyethyl)nicotinamide]",−35%,2.015,27.9%,1.239
"CC(C)NC(=O)c1ccc(COc2nn3c(-c4cc(CO)on4)nnc3c3ccccc23)nc1 [Compound 38, 6-(((3-(5-(hydroxymethyl)isoxazol-3-yl)-[1,2,4]triazolo[3,4-a]phthalazin-6-yl)oxy)methyl)-N-iso propylnicotinamide]",−52.5%,3.023,40%,1.774
"O=C(c1ccc(COc2nn3c(-c4cc(CO)on4)nnc3c3ccccc23)nc1)N1CCS(=O)(=O)CC1 [Compound 40, (1,1-dioxidothiomorpholino)(6-(((3-(5-(hydroxymethyl)isoxazol-3-yl)-[1,2,4]triazolo[3,4-a]phthalazin-6-yl)oxy)methyl)pyridin-3-yl)methanone]",−25.5%,1.468,29%,1.286
